Test results as given in publication PMC11007962, “First-in-human study of GFH018, a small molecule inhibitor of transforming growth factor-β receptor I inhibitor, in patients with advanced solid tumors” (BMC Cancer, 2024).
Read-outs that look alike come from different tables or passages of the source.

System: patients with advanced solid tumors
[1] = 85 mg BID 14d-on/14d-off (N = 12)

Protocol: The study consisted of a dose-escalation part followed by an expansion part. In the dose escalation part, a 3-day pharmacokinetic (PK) lead-in period was conducted for a single dose in the first treatment cycle. Patients received GFH018 once on cycle 1 day 1 (C1D1) and underwent serial PK testing over the first 3 days. On C1D4, patients were administered the corresponding dose of GFH018 BID 14 days on/14 days off. The first cycle was defined as 31 days, including 3-day PK leading-in period with GFH018 single dosing and then 14d-on/14d-off dosing schedule. The subsequent cycles were 28 days. The starting dose of GFH018 was 5 mg, with eight planned dose levels up to 85 mg (5, 10, 20, 30, 40, 50, 65, and 85 mg). A modified 3+3 design was used to determine the maximum tolerance dose (MTD) and RDE, guided by safety/tolerability and PK data. Dose-limiting toxicities (DLTs) were evaluated during the first cycle at each dose level. The safety of 85 mg BID, 7 d-on/7 d-off, was explored after confirming the safety of 14 d-on/14 d-off. The DLTs were defined as hematological toxicities, including G4 neutropenia lasting for more than 5 days, G3 febrile neutropenia, G4 anemia, G4 thrombocytopenia, or G3 thrombocytopenia accompanied by bleeding, and ≥ G3 nonhematological toxicity (except for diarrhea, nausea, vomiting, and rash recovering ≤ G2 after supportive treatment within 3 days). The DLTs for cardiac toxicities included ≥ G2 cardiac valve abnormalities, ≥ G2 left ventricular ejection fraction (LVEF) decrease, any cardiovascular impairment shown in imaging, and abnormal highly sensitive troponin (hs-Tn) increased to ≥ twice the baseline in two consecutive tests with an interval ≥ 3 days. In the expansion part, patients were orally administered GFH018 RDE twice daily to further evaluate the safety of RDE and other dose regimens. […] The treatment cycle lasted 28 days.
All enrolled patients were monitored regularly after GFH018 administration. Safety assessments included adverse events (AEs), serious AEs (SAEs), laboratory assessments, vital signs, physical examinations, electrocardiography and echocardiography. AEs were graded according to the NCI Common Terminology Criteria for Adverse Events (NCI-CTCAE) v5.0. All AEs were followed up until they were stable or had recovered to baseline. Adverse events of special interest (AESIs) were predefined as echocardiographic abnormalities such as aggravated stenosis or regurgitation of the heart valves, clinically significant decreases in LVEF, brain natriuretic peptide (BNP) or N-terminal pro-brain natriuretic peptide (NT-proBNP) increases, and hs-Tn increases judged by investigators.
For the safety and efficacy analyses, data from patients who received GFH018 at the same dose in the dose-escalation and expansion cohorts were pooled. The demographic and baseline characteristics were summarized using descriptive methods. Safety and efficacy data were summarized for all patients who received at least one dose of GFH018. The ORR and DCR were summarized by cohort and overall. When the sample size of the analyzed group was ten or more, the Kaplan–Meier method was used to estimate the median PFS and TTP. In this study, treatment-emergent AEs (TEAEs) were defined as AEs that occurred on or after the first dosing date of GFH018 and no later than 30 days after the last dose of GFH018. The incidence and severity of AEs were descriptively summarized according to dose level. The PK parameters of GFH018 were calculated using noncompartmental analysis methods. All plasma PK data were summarized by cohort and visit day or time using descriptive statistics.

## Cc1cccc(-c2nn3c(c2-c2ccc4ncnn4c2/C=C/C(N)=O)CCC3)n1 [GFH018]
85 mg BID 7d-on/7d-off (N = 6)
  TEAE: ALT increased, any grade (Table S3): 0 n (%)
  TEAE: ALT increased, maximal CTCAE grade G1: 0 n (%)
  TEAE: ALT increased, maximal CTCAE grade G2: 0 n (%)
  TEAE: ALT increased, maximal CTCAE grade G3: 0 n (%)
  TEAE: ALT increased, maximal CTCAE grade G4: 0 n (%)
  TEAE: ALT increased, maximal CTCAE grade G5: 0 n (%)
  TEAE: AST increased: 1 (16.7%) n (%)
  TEAE: AST increased, any grade (Table S3): 1 (16.7%) n (%)
  TEAE: AST increased, maximal CTCAE grade G1: 1 (16.7%) n (%)
  TEAE: AST increased, maximal CTCAE grade G2: 0 n (%)
  TEAE: AST increased, maximal CTCAE grade G3: 0 n (%)
  TEAE: AST increased, maximal CTCAE grade G4: 0 n (%)
  TEAE: AST increased, maximal CTCAE grade G5: 0 n (%)
  TEAE: Abdominal distention: 1 (16.7%) n (%)
  TEAE: Abdominal pain: 2 (33.3%) n (%)
  TEAE: Anemia: 2 (33.3%) n (%)
  TEAE: Asthenia: 1 (16.7%) n (%)
  TEAE: Bilirubin conjugated increased: 1 (16.7%) n (%)
  TEAE: Blood albumin decreased: 1 (16.7%) n (%)
  TEAE: Blood bilirubin increased: 0 n (%)
  TEAE: C-reactive protein increased: 0 n (%)
  TEAE: C-reactive protein increased, any grade (Table S3): 0 n (%)
  TEAE: C-reactive protein increased, maximal CTCAE grade G1: 0 n (%)
  TEAE: C-reactive protein increased, maximal CTCAE grade G2: 0 n (%)
  TEAE: C-reactive protein increased, maximal CTCAE grade G3: 0 n (%)
  TEAE: C-reactive protein increased, maximal CTCAE grade G4: 0 n (%)
  TEAE: C-reactive protein increased, maximal CTCAE grade G5: 0 n (%)
  TEAE: Constipation: 0 n (%)
  TEAE: Decreased appetite: 2 (33.3%) n (%)
  TEAE: Decreased appetite, any grade (Table S3): 2 (33.3%) n (%)
  TEAE: Decreased appetite, maximal CTCAE grade G1: 1 (16.7%) n (%)
  TEAE: Decreased appetite, maximal CTCAE grade G2: 1 (16.7%) n (%)
  TEAE: Decreased appetite, maximal CTCAE grade G3: 0 n (%)
  TEAE: Decreased appetite, maximal CTCAE grade G4: 0 n (%)
  TEAE: Decreased appetite, maximal CTCAE grade G5: 0 n (%)
  TEAE: GGT increased: 0 n (%)
  TEAE: GGT increased, any grade (Table S3): 0 n (%)
  TEAE: GGT increased, maximal CTCAE grade G1: 0 n (%)
  TEAE: GGT increased, maximal CTCAE grade G2: 0 n (%)
  TEAE: GGT increased, maximal CTCAE grade G3: 0 n (%)
  TEAE: GGT increased, maximal CTCAE grade G4: 0 n (%)
  TEAE: GGT increased, maximal CTCAE grade G5: 0 n (%)
  TEAE: Hypoalbuminemia: 1 (16.7%) n (%)
  TEAE: LDH increased: 0 n (%)
  TEAE: LDH increased, any grade (Table S3): 0 n (%)
  TEAE: LDH increased, maximal CTCAE grade G1: 0 n (%)
  TEAE: LDH increased, maximal CTCAE grade G2: 0 n (%)
  TEAE: LDH increased, maximal CTCAE grade G3: 0 n (%)
  TEAE: LDH increased, maximal CTCAE grade G4: 0 n (%)
  TEAE: LDH increased, maximal CTCAE grade G5: 0 n (%)
  TEAE: Lymphocyte count decreased: 3 (50.0%) n (%)
  TEAE: Platelet count decreased: 1 (16.7%) n (%)
  TEAE: Proteinuria: 1 (16.7%) n (%)
  TEAE: Sinus tachycardia: 2 (33.3%) n (%)
  TEAE: Urine protein present: 1 (16.7%) n (%)
  TEAE: White blood cell count decreased: 1 (16.7%) n (%)
  TEAE: White blood cells urine positive: 0 n (%)
  TEAE: White blood cells urine positive, any grade (Table S3): 0 n (%)
  TEAE: White blood cells urine positive, maximal CTCAE grade G1: 0 n (%)
  TEAE: White blood cells urine positive, maximal CTCAE grade G2: 0 n (%)
  TEAE: White blood cells urine positive, maximal CTCAE grade G3: 0 n (%)
  TEAE: White blood cells urine positive, maximal CTCAE grade G4: 0 n (%)
  TEAE: White blood cells urine positive, maximal CTCAE grade G5: 0 n (%)
  TRAE: ALP increased: 1 (16.7%) n (%)
  TRAE: ALT increased: 0 n (%)
  TRAE: AST increased: 0 n (%)
  TRAE: Anemia: 1 (16.7%) n (%)
  TRAE: GGT increased: 0 n (%)
  TRAE: LDH increased: 0 n (%)
  TRAE: Lymphocyte count decreased: 2 (33.3%) n (%)
  TRAE: Protein urine present: 1 (16.7%) n (%)
  TRAE: Proteinuria: 0 n (%)
  Treatment-emergent Proteinuria (grouped PTs), G1: 2 (33.3) n (%)
  Treatment-emergent Proteinuria (grouped PTs), G2: 0 n (%)
  Treatment-emergent Proteinuria (grouped PTs), G3: 0 n (%)
  Treatment-emergent Proteinuria (grouped PTs: proteinuria and urine protein present), any grade: 2 (33.3) n (%)
[1]
  At least one TEAE: 12 (100%) n (%)
  At least one TEAE (Table S3): 12 (100%) n (%)
  At least one TRAE: 11 (91.7%) n (%)
  TEAE: ALP increased: 2 (16.7%) n (%)
  TEAE: ALT increased: 3 (25.0%) n (%)
  TEAE: ALT increased, any grade (Table S3): 3 (25.0%) n (%)
  TEAE: ALT increased, maximal CTCAE grade G1: 3 (25.0%) n (%)
  TEAE: ALT increased, maximal CTCAE grade G2: 0 n (%)
  TEAE: ALT increased, maximal CTCAE grade G3: 0 n (%)
  TEAE: ALT increased, maximal CTCAE grade G4: 0 n (%)
  TEAE: ALT increased, maximal CTCAE grade G5: 0 n (%)
  TEAE: AST increased: 4 (33.3%) n (%)
  TEAE: AST increased, any grade (Table S3): 4 (33.3%) n (%)
  TEAE: AST increased, maximal CTCAE grade G1: 3 (25.0%) n (%)
  TEAE: AST increased, maximal CTCAE grade G2: 1 (8.3%) n (%)
  TEAE: AST increased, maximal CTCAE grade G3: 0 n (%)
  TEAE: AST increased, maximal CTCAE grade G4: 0 n (%)
  TEAE: AST increased, maximal CTCAE grade G5: 0 n (%)
  TEAE: Abdominal distention: 2 (16.7%) n (%)
  TEAE: Abdominal pain: 4 (33.3%) n (%)
  TEAE: Anemia: 3 (25.0%) n (%)
  TEAE: Asthenia: 2 (16.7%) n (%)
  TEAE: Bilirubin conjugated increased: 3 (25.0%) n (%)
  TEAE: Blood albumin decreased: 1 (8.3%) n (%)
  TEAE: Blood bilirubin increased: 0 n (%)
  TEAE: C-reactive protein increased: 3 (25.0%) n (%)
  TEAE: C-reactive protein increased, any grade (Table S3): 3 (25.0%) n (%)
  TEAE: C-reactive protein increased, maximal CTCAE grade G1: 3 (25.0%) n (%)
  TEAE: C-reactive protein increased, maximal CTCAE grade G2: 0 n (%)
  TEAE: C-reactive protein increased, maximal CTCAE grade G3: 0 n (%)
  TEAE: C-reactive protein increased, maximal CTCAE grade G4: 0 n (%)
  TEAE: C-reactive protein increased, maximal CTCAE grade G5: 0 n (%)
  TEAE: Constipation: 2 (16.7%) n (%)
  TEAE: Decreased appetite: 0 n (%)
  TEAE: Decreased appetite, any grade (Table S3): 0 n (%)
  TEAE: Decreased appetite, maximal CTCAE grade G1: 0 n (%)
  TEAE: Decreased appetite, maximal CTCAE grade G2: 0 n (%)
  TEAE: Decreased appetite, maximal CTCAE grade G3: 0 n (%)
  TEAE: Decreased appetite, maximal CTCAE grade G4: 0 n (%)
  TEAE: Decreased appetite, maximal CTCAE grade G5: 0 n (%)
  TEAE: GGT increased: 4 (33.3%) n (%)
  TEAE: GGT increased, any grade (Table S3): 4 (33.3%) n (%)
  TEAE: GGT increased, maximal CTCAE grade G1: 3 (25.0%) n (%)
  TEAE: GGT increased, maximal CTCAE grade G2: 1 (8.3%) n (%)
  TEAE: GGT increased, maximal CTCAE grade G3: 0 n (%)
  TEAE: GGT increased, maximal CTCAE grade G4: 0 n (%)
  TEAE: GGT increased, maximal CTCAE grade G5: 0 n (%)
  TEAE: Hypoalbuminemia: 3 (25.0%) n (%)
  TEAE: LDH increased: 2 (16.7%) n (%)
  TEAE: LDH increased, any grade (Table S3): 2 (16.7%) n (%)
  TEAE: LDH increased, maximal CTCAE grade G1: 2 (16.7%) n (%)
  TEAE: LDH increased, maximal CTCAE grade G2: 0 n (%)
  TEAE: LDH increased, maximal CTCAE grade G3: 0 n (%)
  TEAE: LDH increased, maximal CTCAE grade G4: 0 n (%)
  TEAE: LDH increased, maximal CTCAE grade G5: 0 n (%)
  TEAE: Lymphocyte count decreased: 4 (33.3%) n (%)
  TEAE: Platelet count decreased: 1 (8.3%) n (%)
  TEAE: Proteinuria: 2 (16.7%) n (%)
  TEAE: Sinus tachycardia: 1 (8.3%) n (%)
  TEAE: Urine protein present: 1 (8.3%) n (%)
